Source: ChEMBL document CHEMBL1156377, “New cytotoxic N-methylated beta-carboline alkaloids from the marine ascidian Eudistoma gilboverde” (J Nat Prod, 2001)
Converted amounts (≈) assume the structure as drawn.

Legend:
Assay type in all cases: functional, cell-based
OVCAR-3 = assay: Cytotoxicity against human OVCAR-3 cells after 2 days; conditions: OVCAR-3, 48 h
[1] = Cytotoxicity against human LOX cells after 2 days; conditions: 48 h
COLO 205 = assay: Cytotoxicity against human COLO205 cells after 2 days; conditions: COLO 205, 48 h
MOLT-4 = assay: Cytotoxicity against human MOLT4 cells after 2 days; conditions: MOLT-4, 48 h

| SMILES | IC50 (OVCAR-3) [µg/mL] | IC50 [1] [µg/mL] | IC50 (COLO 205) [µg/mL] | IC50 (MOLT-4) [µg/mL] |
| --- | --- | --- | --- | --- |
| CSC[C@H](c1nccc2c1[nH]c1ccc(O)c(Br)c12)N(C)C | 0.98 (≈ 2.58 µM) | 0.41 (≈ 1.08 µM) | 0.42 (≈ 1.1 µM) | 0.57 (≈ 1.5 µM) |
| C[n+]1ccc2c(c1)[nH]c1cc(Br)c(O)cc12.[Cl-] | 20 | 15.1 | 15.1 | 17.5 |
| C[n+]1ccc2c(c1)[nH]c1ccc(O)c(Br)c12.[Cl-] | 20 | 15 | 19.1 | 16.6 |
